Measurements reported in patent US20240374763A1, “DIAGNOSIS AND MONITORING USING EXTRADOMAIN-B FIBRONECTIN TARGETED PROBES” (Case Western Reserve University, priority 2020, published 2024).
No end group written: not given here.

Tests used:
Assay type in all cases: in vivo, mice
HSC3 tumors = assay: MRMI of OSCC flank xenografts, HSC3; details: MT218 0.04 mmol/kg
Experimental: (§1) Animal experiments were performed under an animal protocol approved by the Institutional Animal Care and Use Committee (IACUC) at Case Western Reserve University (CWRU, Cleveland, OH, USA). Female 4-week-old athymic nude mice purchased from the Jackson Laboratory (Bar Harbor, ME, USA) were housed in the Animal Core Facility at CWRU. Anesthetized mice were subcutaneously inoculated in the right flank with 4×10^6 GFP/luciferase-expressing OSCC cells (n=5 per cell line) in 100 μL of a 1:1 mixture of Matrigel HC (Corning) and DPBS. Tumor size was monitored with caliper measurements. After 4 weeks of growth, tumors were sufficiently large for MRI experiments.
MRI experiments were performed with a 3T MRS-3000 system (MR Solutions, Surrey, UK). Tumor-bearing mice were imaged before and at 10, 20, […] spin-echo axial sequence with respiratory gating (TR=305 ms, TE=11 ms, FOV=40×40 mm, slice thickness=1 mm, number of slices=15, Nav=2, matrix=256×248). This protocol was repeated on the same mice 2 days later using the untargeted clinical agent gadoteridol at the clinical dose of 0.10 mmol/kg.
(§2) Images were exported in DICOM format and analyzed using FIJI. Contrast-to-noise ratio (CNR) for each time point was calculated as the difference between the mean tumor intensity and the mean muscle intensity, divided by the standard deviation of noise.

CAL27 tumors = assay: MRMI of OSCC flank xenografts, CAL27; details: MT218 0.04 mmol/kg
Experimental: as §1
MRI experiments were performed with a 3T MRS-3000 system (MR Solutions, Surrey, UK). Tumor-bearing mice were imaged before and at 10, 20, and 30 minutes post-injection of the targeted contrast agent, MT218 (Molecular Theranostics, LLC, Cleveland, OH, USA), at a dose of 0.04 mmol/kg using a T1-weighted fast spin-echo axial sequence with respiratory gating (TR=305 ms, TE=11 ms, FOV=40×40 mm, slice thickness=1 mm, number of slices=15, Nav=2, matrix=256×248). […]
as §2

DLD1-DR tumors = assay: MRMI of EDB-FN with MT218, DLD1-DR xenografts
Experimental: (§3) Nude athymic mice (6-week-old nu/nu females) were purchased from The Jackson Laboratory (Bar Harbor, […]) and housed in the Animal Facility at CWRU. All the animal experiments were performed according to the protocol approved by the IACUC of CWRU. For assessment of drug resistance, 2 drug-resistant and 2 non-drug-resistant models were set up. About 3-4×10^6 DLD-1, RKO, DLD1-DR, and RKO-DR cells suspended in Matrigel-PBS mixture (1:1) were subcutaneously injected in the left flanks of nude mice (100 μL per mouse, 5 mice per group×4 models=20 mice). After 9 days when the tumors reached 100-200 mm3, MRMI was performed on the 4 xenograft models with 40 μmol/kg dose of MT218. The animals were then euthanized, and the tumors were harvested for post-mortem histology and IHC.
(§4) MT218 was synthesized as previously described. Ayat, N. R., et al., ACS Med Chem Lett, 2018. 9(7): p. 730-735. Briefly, click reaction between alkynyl-ZD2 and N3-Gd(HP-DO3A) was performed in the presence of CuSO4 and ascorbate at room temperature, followed by FLASH chromatography purification and validation of MT218 by MALDI-TOF mass spectrometry (m.w. 1443). For assessment of drug resistance and therapeutic monitoring, MRMI was performed in a 3T MRS 3000 scanner (MR Solutions, Surrey, UK) with a mouse short quad coil. The mice were anesthetized with isofluorane and tail vein catheter was setup. T1-weighted MR images were obtained before (pre-contrast) and 25 min after injection (post-contrast) of 40 μmol/kg dose of MT218 [ZD2-N3—Gd(HP-DO3A)]. The following two sequences were used with respiratory gating: axial fast spin echo (FSE) (TR=305 ms, TE=11 ms, FA=90°, FOV=40 mm×40 mm, slice thickness=1 mm, slice number=15, Nav=2, matrix=256×256) and coronal FSE (TR=305 ms, TE=11 ms, FA=90°, FOV=90 mm×90 mm, slice thickness=1 mm, slice number=20, Nav=1, matrix=248×512). […] Contrast-to-noise ratios (CNRs) were calculated as (mean tumor intensity—mean muscle intensity)/standard deviation of noise. […]

PC3-DR tumors = assay: MRMI with MT218, PC3-DR xenografts; details: 0.04 mmol Gd/kg, 20 min post-injection, p=0.07
Text: Xenograft models were established by subcutaneous flank injections in athymic nu/nu mice for the 4 prostate cancer cells and tested with MRMI using 0.04 mmol Gd/kg of MT218.

DLD-1 tumors = assay: MRMI of EDB-FN with MT218, DLD-1 xenografts; details: 40 μmol/kg MT218, 25 min post-injection
Experimental: as §3
MT218 was synthesized as previously described. Ayat, N. R., et al., ACS Med Chem Lett, 2018. 9(7): p. 730-735. Briefly, click reaction between alkynyl-ZD2 and N3-Gd(HP-DO3A) was performed in the presence of CuSO4 and ascorbate at room temperature, followed by FLASH chromatography purification and validation of MT218 by MALDI-TOF mass spectrometry (m.w. 1443). […] Contrast-to-noise ratios (CNRs) were calculated as (mean tumor intensity—mean muscle intensity)/standard deviation of noise. […]

MDA-MB-231 tumors = assay: MRMI-mediated monitoring of therapeutic response, MDA-MB-231 tumors; details: pretreatment MDA-MB-231 tumors, MT218 0.1 mmol/kg, first 30 min
Experimental: The targeted MRI contrast agent ZD2-N3-Gd(HP-DO3A) (MT218) was provided by Molecular Theranostics (Cleveland, OH) and was synthesized. MR images of the mice bearing MDA-MB-231 or Hs578T tumors were acquired on a 3T MRS 3000 scanner (MRS Solutions, Surrey, UK) with a mouse short quad coil. T1-weighted images were acquired following intravenous injection of MT218 at dose of 0.1 mmol/kg using a fast spin echo (FSE) axial sequence with respiratory gating (TR=305 ms, TE=11 ms, FA=90°, FOV=40×40 mm, slice thickness=1 mm, slice number=15, Nav=2, matrix=256×256). Images were acquired before and at 10, 20, and 30 min after injection of MT218. MRMI was performed before the treatment and then at week 6 post-nanoparticle treatments for MDA-MB-231 and Hs578T tumors. MRI data and image processing was conducted using FIJI (FIJI is just ImageJ) software. The contrast-to-noise ratios (CNRs) of tumors were calculated as the difference of the mean tumor intensity and the mean muscle intensity divided by the standard deviation of the noise.

RKO-DR tumors = assay: MRMI of EDB-FN with MT218, RKO-DR xenografts
Experimental: as §3, §4

[1] = DLD1-DR over DLD-1 tumors, 40 μmol/kg MT218
[2] = RKO-DR over RKO tumors, 40 μmol/kg MT218

In the case of “ZD2-N3-Gd(HP-DO3A) (TVRTSAD; also: conjugated to Gd(HP-DO3A) by click reaction of alkynyl-ZD2 with N3-Gd(HP-DO3A), residue of attachment not given here, Gd complex) [MT218, EDB-FN-targeted MRI contrast agent; ZD2 peptide conjugated to the clinical macrocyclic agent Gd(HP-DO3A)]”, the “average maximum enhancement (CNR)” value (HSC3 tumors) is reported as 2.61±0.17, the “average maximum enhancement (CNR)” value (CAL27 tumors) is reported as 1.80±0.17 and the “higher CNRs over the non-resistant tumors” value (DLD1-DR tumors; [1]) is reported as 2.2 fold. The “increase in CNR over the non-resistant tumors” value (DLD1-DR tumors; [1]) was 120%, the “higher CNRs over pre-contrast” value (DLD1-DR tumors; DLD1-DR tumors, 40 μmol/kg MT218, 25 min post-injection) was 3.3 fold and the “CNR over the pre-contrast” value (PC3-DR tumors) was 1.6 fold. For the same substance, the “increase in CNRs over the pre-contrast” value (DLD-1 tumors) was 1.53 fold, the “signal enhancement vs pre-contrast” value (MDA-MB-231 tumors) was “Strong signal enhancement” and the “higher CNRs over the non-resistant tumors” value (RKO-DR tumors; [2]) was 1.8 fold. For the same substance, the “increase in CNR over the non-resistant tumors” value (RKO-DR tumors; [2]) was 84% and the “higher CNRs over pre-contrast” value (RKO-DR tumors; RKO-DR tumors, 40 μmol/kg MT218, 25 min post-injection) was 2.6 fold.
